Measurements from article PMC8637530, “Modulatory Actions of the Glycine Receptor β Subunit on the Positive Allosteric Modulation of Ethanol in α2 Containing Receptors” (Frontiers in Molecular Neuroscience, 2021).

Columns and labels:
Assay in all cases: whole-cell patch clamp, HEK293
Format in all cases: cell-based
Conditions in all cases: -60 mV, 20-24 °C, pH 7.4; agonist
α1β GlyR (heteromeric) = system: T1, α1β GlyR (heteromeric)
T1 construct: gene GLRA1; recombinant heteropentamer in HEK293 cells, excess beta cDNA (1 μg alpha/EGFP plus 4 μg beta)
Excerpt: whole-cell patch clamp, HEK293 on α1β GlyR (heteromeric)

α2 GlyR (homomeric) = system: T2, α2 GlyR (homomeric)
T2 construct: gene GLRA2; recombinant homomeric receptor expressed in HEK293 cells
Excerpt: whole-cell patch clamp, HEK293 on α2 GlyR (homomeric)

α1 GlyR (homomeric) = system: T3, α1 GlyR (homomeric)
T3 construct: gene GLRA1; recombinant homomeric receptor expressed in HEK293 cells; EGFP co-transfected
Excerpt: whole-cell patch clamp, HEK293 on α1 GlyR (homomeric)

## NCC(=O)O [Glycine]
α1β GlyR (heteromeric)
  EC50: […]
α2 GlyR (homomeric)
  EC50: 86 ± 2 µM
α1 GlyR (homomeric)
  EC50: […]
